From US8822449B2, “Substituted aminoindanes and analogs thereof, and the pharmaceutical use thereof” (Sanofi, priority 2008, dated 2014) come the findings set out here.

Some results are limits rather than exact numbers.

This test concerns the target T1, sodium-proton exchanger of subtype 3 (NHE3) (Homo sapiens, UniProt P48764).
T1 construct: expressed in transfected cells
T1 sequence (P48764 26-834): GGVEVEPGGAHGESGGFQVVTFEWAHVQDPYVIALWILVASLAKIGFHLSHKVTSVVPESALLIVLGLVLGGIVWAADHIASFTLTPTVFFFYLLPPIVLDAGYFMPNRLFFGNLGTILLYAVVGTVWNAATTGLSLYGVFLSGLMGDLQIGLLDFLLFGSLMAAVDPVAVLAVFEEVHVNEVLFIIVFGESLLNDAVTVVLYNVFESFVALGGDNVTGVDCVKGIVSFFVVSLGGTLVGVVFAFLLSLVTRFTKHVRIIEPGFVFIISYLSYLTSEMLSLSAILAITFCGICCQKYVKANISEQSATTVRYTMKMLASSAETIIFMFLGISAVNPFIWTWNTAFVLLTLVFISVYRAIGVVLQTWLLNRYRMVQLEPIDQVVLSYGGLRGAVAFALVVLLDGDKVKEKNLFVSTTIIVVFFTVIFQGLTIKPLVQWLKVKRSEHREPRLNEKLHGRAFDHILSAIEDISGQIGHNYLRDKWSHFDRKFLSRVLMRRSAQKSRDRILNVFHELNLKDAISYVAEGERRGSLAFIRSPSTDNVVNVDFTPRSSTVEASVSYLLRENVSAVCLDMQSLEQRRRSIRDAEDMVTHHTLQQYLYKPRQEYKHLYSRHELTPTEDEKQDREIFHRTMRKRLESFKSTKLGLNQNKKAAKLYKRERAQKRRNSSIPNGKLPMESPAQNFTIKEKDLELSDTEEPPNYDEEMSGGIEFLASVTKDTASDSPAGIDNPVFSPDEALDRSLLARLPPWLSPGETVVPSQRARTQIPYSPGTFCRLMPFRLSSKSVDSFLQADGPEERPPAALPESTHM
Description: Recovery of intracellular pH (pHi) after acidification in LAP1 cells stably expressing NHE3 (BCECF fluorescence, FLIPR). The test is classed as cell-based. Particulars: LAP1 cells stably expressing NHE3; pH recovery after acidification; range 1 is % inhibition at 10 μM; read-out: Activity range (inhibitory effect on NHE3).

Take `CS(=O)(=O)c1nccn1-c1ccc(O[C@H]2c3cc(Cl)cc(F)c3C[C@@H]2NC2CCCC2)c(F)c1` [Example 754, {trans-(1S,2S)-6-Chloro-4-fluoro-1-[2-fluoro-4-(2-methanesulfonyl-imidazol-1-yl)-phenoxy]-indan-2-yl}-cyclopentyl-amine]: the IC50 was less than 1 µM.

As for `CS(=O)(=O)c1ccc(O[C@H]2c3cc(Cl)cc(Cl)c3C[C@@H]2N2CC[C@H](O)C2)cc1` [Example 198, (S)-1-[trans-(1S,2S)-4,6-dichloro-1-(4-methanesulfonylphenoxy)indan-2-yl]pyrrolidin-3-ol], the IC50 was less than 1 µM.

With `Cc1nc2cc(O[C@H]3c4cc(Cl)cc(Cl)c4C[C@@H]3N3CCNCC3)ccc2s1` (racemic) [Example 572, 5-(rac-trans-(1,2)-4,6-dichloro-2-piperazin-1-ylindan-1-yloxy)-2-methylbenzothiazole], the IC50 lay in the range of 1 to 10 µM.

Take `COc1cccc(F)c1O[C@@H]1c2ccccc2C[C@H]1N1C[C@H]2CNC[C@H]2C1` (racemic) [Example 5, 2-[rac-trans-(1,2)-1-(2-fluoro-6-methoxyphenoxy)indan-2-yl]octahydropyrrolo[3,4-c]pyrrole]: the IC50 was 1 to 10 µM.

Consider `CC1(C)OC(=O)N(c2ccc(Cl)c(O[C@H]3c4cc(Cl)cc(Cl)c4C[C@@H]3N3CC[C@@H](O)C3)c2)C1=O` [Example 432, 3-{4-chloro-3-[(1S,2S)-4,6-dichloro-2-((R)-3-hydroxypyrrolidin-1-yl)indan-1-yloxy]phenyl}-5,5-dimethyloxazolidine-2,4-dione], for which the IC50 lay in the range of 1 to 10 µM.

For the compound `NS(=O)(=O)c1ccc(O[C@H]2c3ccccc3C[C@@H]2CN2CCCCC2)c(Cl)c1` (racemic) [Example 440, 3-chloro-4-(2-piperidin-1-ylmethylindan-1-yloxy)benzenesulfonamide], the inhibition at 10 µM lay within 20 to 50%.

As for `COc1cc(Cl)cc(O[C@@H]2c3ccccc3C[C@H]2N2CCC(CN)CC2)c1` (racemic) [Example 612, C-{1-[rac-trans-(1,2)-1-(3-chloro-5-methoxyphenoxy)indan-2-yl]piperidin-4-yl}methylamine], the IC50 lay in the range of 1 to 10 µM.

Consider `N#Cc1ccc(O[C@H]2c3ccccc3CC[C@@H]2N2CCC[C@H](N)C2)cc1Cl` (racemic) [Example 529, 4-[rac-trans-(1,2)-2-((S)-3-aminopiperidin-1-yl)-1,2,3,4-tetrahydronaphthalen-1-yloxy]-2-chlorobenzonitrile], for which the inhibition at 10 µM lay within 20 to 50%.

On to `NS(=O)(=O)c1ccc(O[C@H]2c3ccccc3C[C@@H]2N2CCCC2)c(F)c1` (racemic) [Example 451, 3-fluoro-4-(2-pyrrolidin-1-ylindan-1-yloxy)benzenesulfonamide], for which the IC50 is less than 1 µM.

Regarding `NCC1CCN([C@@H]2Cc3ccccc3[C@H]2Oc2ccc3[nH]cc(CC(N)=O)c3c2)C1` (mixture of isomers) [Example 386, 2-{5-[rac-trans-(1,2)-2-(3-aminomethylpyrrolidin-1-yl)indan-1-yloxy]-1H-indol-3-yl}acetamide], the IC50 was 1 to 10 µM.

As to `Cc1cc(O[C@@H]2c3ccccc3C[C@H]2N2CCC(CN)C2)cc(C)c1C#N` (mixture of isomers) [Example 539, 4-[rac-trans-(1,2)-2-(3-aminomethylpyrrolidin-1-yl)indan-1-yloxy]-2,6-dimethylbenzonitrile], the IC50 fell in the range of 1 to 10 µM.

As to `Cc1cc(C#N)cc(C)c1O[C@H]1c2ccccc2CC[C@@H]1N1CCC[C@@H](N)C1` (racemic) [Example 511, 4-[rac-trans-(1,2)-2-((R)-3-aminopiperidin-1-yl)-1,2,3,4-tetrahydronaphthalen-1-yloxy]-3,5-dimethylbenzonitrile], the inhibition at 10 µM is 20 to 50%.

As for `COCCc1ccc(O[C@@H]2c3ccccc3C[C@H]2N2C[C@H]3CNC[C@H]3C2)cc1` (racemic) [Example 19, 2-{rac-trans-(1,2)-1-[4-(2-methoxyethyl)phenoxy]indan-2-yl}octahydropyrrolo[3,4-c]pyrrole], the IC50 was in the range of 1 to 10 µM.

As for `O=C(O[C@H]1c2ccccc2C[C@@H]1N1CCCC1)c1ccc(N2CCCC2=O)cc1` [Example 461, 4-(2-Oxopyrrolidin-1-yl)benzoic acid (1S,2S)-2-pyrrolidin-1-ylindan-1-yl ester], the inhibition at 10 µM is 20 to 50%.

As to `NCC1CCN([C@@H]2Cc3ccccc3[C@H]2Oc2ccc3[nH]cc(CC(N)=O)c3c2)CC1` (racemic) [Example 388, 2-{5-[rac-trans-(1,2)-2-(4-aminomethylpiperidin-1-yl)indan-1-yloxy]-1H-indol-3-yl}acetamide], the IC50 was in the range of 1 to 10 µM.

Consider `N#Cc1cc(Cl)ccc1O[C@H]1c2ccccc2CC[C@@H]1N1CCOCC1` (racemic) [Example 585, 5-chloro-2-(rac-trans-(1,2)-2-morpholin-4-yl-1,2,3,4-tetrahydronaphthalen-1-yloxy)benzonitrile], for which the inhibition at 10 µM lay within 20 to 50%.

Regarding `NS(=O)(=O)c1ccc(O[C@H]2c3cc(Cl)cc(Cl)c3C[C@@H]2N2CCOCC2)c(Cl)c1Cl` (racemic) [Example 358, 2,3-dichloro-4-(rac-trans-(1,2)-4,6-dichloro-2-morpholin-4-ylindan-1-yloxy)benzenesulfonamide], the IC50 lay in the range of 1 to 10 µM.

Consider `CC(=O)Nc1ccc(OC2c3ccccc3CC2N2CCCC2)cc1` (racemic) [Example 666, N-[4-(rac-trans-(1,2)-2-pyrrolidin-1-ylindan-1-yloxy)phenyl]acetamide], for which the IC50 lay within 1 to 10 µM.

In the case of `COc1ccc(C)cc1O[C@@H]1c2ccccc2C[C@H]1N1CCC(CN)C1` (mixture of isomers) [Example 607, C-{1-[rac-trans-(1,2)-1-(2-methoxy-5-methylphenoxy)indan-2-yl]pyrrolidin-3-yl}methylamine], the IC50 is 1 to 10 µM.

For the compound `CC(=O)Nc1cccc(O[C@@H]2c3ccccc3C[C@H]2N2CCC(CN)C2)c1` (mixture of isomers) [Example 686, N-{3-[rac-trans-(1,2)-2-(3-aminomethylpyrrolidin-1-yl)indan-1-yloxy]phenyl}acetamide], the IC50 was in the range of 1 to 10 µM.

In the case of `N[C@H]1CCCN([C@H]2CCc3ccccc3[C@@H]2Oc2ccc(OC(F)F)cc2)C1` (racemic) [Example 176, (S)-1-[rac-trans-(1,2)-1-(4-difluoromethoxyphenoxy)-1,2,3,4-tetrahydronaphthalen-2-yl]piperidin-3-ylamine], the inhibition at 10 µM fell in the range of 20 to 50%.

`CC(=O)Nc1cccc(O[C@H]2c3cc(Cl)cc(Cl)c3C[C@@H]2N2CCNCC2)c1` [Example 665, N-[3-(trans-(1S,2S)-4,6-dichloro-2-piperazin-1-ylindan-1-yloxy)phenyl]acetamide]: the IC50 is less than 1 µM.

As for `CC1(C)NC(=O)N(c2ccc(O[C@H]3c4cc(Cl)cc(Cl)c4C[C@@H]3N3CC[C@@H](O)C3)c(Cl)c2)C1=O` [Example 423, 3-{3-chloro-4-[(1S,2S)-4,6-dichloro-2-((R)-3-hydroxypyrrolidin-1-yl)indan-1-yloxy]phenyl}-5,5-dimethylimidazolidine-2,4-dione], the IC50 lay in the range of 1 to 10 µM.

As for `CS(=O)(=O)c1ccc(O[C@H]2c3cc(Cl)cc(Cl)c3C[C@@H]2N2CCC(F)(F)CC2)cc1` [Example 250, 1-[(1S,2S)-4,6-dichloro-1-(4-methanesulfonylphenoxy)indan-2-yl]-4,4-difluoropiperidine], the inhibition at 10 µM was 20 to 50%.

For `Cc1cn(-c2ccc(O[C@H]3c4cc(Cl)cc(Cl)c4C[C@@H]3N3CC[C@@H](O)C3)cc2)c(C(C)C)n1` [Example 714, (R)-1-{trans-(1S,2S)-4,6-Dichloro-1-[4-(2-isopropyl-4-methyl-imidazol-1-yl)-phenoxy]-indan-2-yl}-pyrrolidin-3-ol], the IC50 lay in the range of 1 to 10 µM.

Take `N[C@H]1CCCN([C@@H]2Cc3ccccc3[C@H]2Oc2cccc3ncccc23)C1` (racemic) [Example 194, (S)-1-[rac-trans-(1,2)-1-(quinolin-5-yloxy)indan-2-yl]piperidin-3-ylamine]: the IC50 lay within 1 to 10 µM.

For `CS(=O)(=O)c1ccccc1O[C@H]1c2cc(Cl)cc(Cl)c2C[C@@H]1N1CCCC1` [Example 247, 1-[(1S,2S)-4,6-dichloro-1-(2-methanesulfonylphenoxy)indan-2-yl]pyrrolidine], the inhibition at 10 µM was 20 to 50%.

Regarding `N#Cc1ccc(O[C@@H]2c3ccccc3C[C@H]2N2C[C@H]3CNC[C@H]3C2)c(Cl)c1` (racemic) [Example 445, 3-chloro-4-[rac-trans-(1,2)-2-(hexahydropyrrolo[3,4-c]pyrrol-2-yl)indan-1-yloxy]benzonitrile], the IC50 was less than 1 µM.

Consider `O=C1CNC(=O)N1c1ccc(O[C@H]2c3cc(Cl)cc(F)c3C[C@@H]2NC2CCCC2)c(F)c1` [Example 753, 3-[4-(trans-(1S,2S)-6-Chloro-2-cyclopentylamino-4-fluoro-indan-1-yloxy)-3-fluoro-phenyl]-imidazolidine-2,4-dione], for which the IC50 lay within 1 to 10 µM.
